We go through 5 compounds from patent publication US20230256049A1, “MATERIALS AND METHODS FOR THE PREVENTION AND TREATMENT OF VIRAL RESPIRATORY DISEASES” (priority 2020, published 2023).

In data set [1] the test system is HIV-1 (primary R5 JR-CSF). The data set can be described thus: HIV-1 in vitro model, HeLa TZM reporter cells (alanine scan). The settings on record: β-galactosidase at 48 h. Format: cell-based.
The test system of data set [2] is SARS-CoV-2 (2019-nCoV/USA-WA1/2020 strain). To be noted: VERO E6 (FIG. 5C).
Another data set concerns SARS-CoV-2. The settings on record: cited from earlier work; for treatment outcome in SARS-CoV-2 / COVID-19 patients: remdesivir: double-blind, randomized, placebo-controlled trial in hospitalized adults; for patient morbidity risk: treatment of SARS-CoV-2.
The subject of data set [3] is SARS-CoV-2 (2019-nCoV/USA-WA1/2020 strain).

Read-outs that look alike come from different tables or passages of the source. Where a SMILES comes first, the peptide text is derived from it. [ ]: non-standard residue; d: D form.

For `CC[C@H](C)[C@H](NC(=O)[C@H](CC(=O)O)NC(=O)[C@H](CCCNC(=N)N)NC(=O)[C@H](CC(C)C)NC(=O)[C@H](Cc1c[nH]c2ccccc12)NC(=O)[C@@H](N)CO)C(=O)N[C@@H](Cc1c[nH]c2ccccc12)C(=O)N[C@@H](CC(=O)O)C(=O)N[C@@H](Cc1c[nH]c2ccccc12)C(=O)N[C@H](C(=O)N[C@@H](CS)C(=O)N[C@@H](CCC(=O)O)C(=O)N[C@H](C(=O)N[C@@H](CC(C)C)C(=O)N[C@@H](CO)C(=O)N[C@@H](CC(=O)O)C(=O)N[C@@H](Cc1ccccc1)C(=O)N[C@@H](CCCCN)C(=O)O)C(C)C)[C@@H](C)CC` [Peptide 346-001, SWLRDIWDWICEVLSDFK] (H-SWLRDIWDWICEVLSDFK-OH; N-terminus and C-terminus assumed), the “antiviral activity against HIV-1 (in vitro HIV-1 inhibition)” value in data set [1] is listed as “effective against HIV-1”. Also, the “reduction on viral copy numbers” value in data set [2] (50 μM dosing concentration) is > 5 orders of magnitude; in data set [2] (125 μM dosing concentration) it was > 7 orders of magnitude.

Consider `CCN(CC)CCCC(C)Nc1ccnc2cc(Cl)ccc12` (stereo not drawn) [chloroquine], for which, in the data set with SARS-CoV-2, the “treatment outcome in SARS-CoV-2 / COVID-19 patients” value is reported as “failed” and the patient morbidity risk result is on record as “increased patient morbidity risk”.

As to `CC[C@H](C)[C@H](NC(=O)[C@H](CC(C)C)NC(=O)[C@H](CC(=O)O)NC(=O)[C@@H](NC(=O)[C@H](Cc1c[nH]c2ccccc12)NC(=O)[C@H](CC(=O)O)NC(=O)[C@H](CCCNC(=N)N)NC(=O)[C@H](Cc1c[nH]c2ccccc12)NC(=O)[C@@H](NC(=O)[C@@H](N)CO)[C@@H](C)CC)C(C)C)C(=O)N[C@@H](CS)C(=O)N[C@@H](CCC(=O)O)C(=O)N[C@@H](Cc1ccccc1)C(=O)N[C@@H](CC(C)C)C(=O)N[C@@H](CO)C(=O)N[C@@H](CC(=O)O)C(=O)N[C@@H](Cc1c[nH]c2ccccc12)C(=O)N[C@@H](CCCCN)C(=O)O` [Peptide 346-007, SIWRDWVDLICEFLSDWK] (H-SIWRDWVDLICEFLSDWK-OH; N-terminus and C-terminus assumed), the “potency relative to the other peptides tested” value in data set [3] was “ca. double the potency of the other peptides tested”.

Take `CCN(CCO)CCCC(C)Nc1ccnc2cc(Cl)ccc12` (stereo not drawn) [hydroxychloroquine]: in the data set on SARS-CoV-2, the “treatment outcome in SARS-CoV-2 / COVID-19 patients” value is given as “failed” and the patient morbidity risk entry is “increased patient morbidity risk”.

As for `CC[C@@H](C)[C@@H](NC(=O)[C@@H](CC(=O)O)NC(=O)[C@@H](CCCNC(=N)N)NC(=O)[C@@H](CC(C)C)NC(=O)[C@@H](Cc1c[nH]c2ccccc12)NC(=O)[C@H](N)CO)C(=O)N[C@H](Cc1c[nH]c2ccccc12)C(=O)N[C@H](CC(=O)O)C(=O)N[C@H](Cc1c[nH]c2ccccc12)C(=O)N[C@@H](C(=O)N[C@H](CS)C(=O)N[C@H](CCC(=O)O)C(=O)N[C@@H](C(=O)N[C@H](CC(C)C)C(=O)N[C@H](CO)C(=O)N[C@H](CC(=O)O)C(=O)N[C@H](Cc1ccccc1)C(=O)N[C@H](CCCCN)C(=O)O)C(C)C)[C@H](C)CC` [Peptide 346-002, swlrdiwdwicevlsdfk] (H-[dS][dW][dL][dR][dD][dI][dW][dD][dW][dI][dC][dE][dV][dL][dS][dD][dF][dK]-OH; N-terminus and C-terminus assumed), the midpoint of the response in data set [3] (2019-nCoV/USA-WA1/2020 strain, 48 h), the EC50, lay at 13 µM.
